According to PubChem BioAssay (NCI):
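Growth conditions: 96-well plates. Treatment: test compound, 48 hours, 5 concentrations. Analysis: linear interpolation between bracketing concentrations; unreached endpoints set to highest concentration. GI50 = concentration required for 50% inhibition of growth. TGI: total growth inhibition.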

Tests used:
Test in all cases: NCI tumour cell line growth inhibition, 48 h
UACC-62 melanoma = tested on: UACC-62 melanoma
M19-MEL melanoma = tested on: M19-MEL melanoma
DMS 273 small cell lung = tested on: DMS 273 small cell lung
HOP-18 NSCLC = tested on: HOP-18 NSCLC
IGROV1 ovarian = tested on: IGROV1 ovarian
MCF7 breast = tested on: MCF7 breast
DMS 114 small cell lung = tested on: DMS 114 small cell lung
MDA-MB-435 = tested on: MDA-MB-435
PC-3 prostate = tested on: PC-3 prostate
DU-145 prostate = tested on: DU-145 prostate

SMILES | TGI (UACC-62 melanoma) [µM] | TGI (M19-MEL melanoma) [µM] | TGI (DMS 273 small cell lung) [µM] | TGI (HOP-18 NSCLC) [µM] | TGI (IGROV1 ovarian) [µM] | GI50 (MCF7 breast) [µM] | TGI (MCF7 breast) [µM] | TGI (DMS 114 small cell lung) [µM] | GI50 (MDA-MB-435) [µM] | TGI (MDA-MB-435) [µM] | GI50 (PC-3 prostate) [µM] | TGI (PC-3 prostate) [µM] | TGI (DU-145 prostate) [µM] | GI50 (UACC-62 melanoma) [µM] | GI50 (M19-MEL melanoma) [µM] | GI50 (DMS 273 small cell lung) [µM] | GI50 (HOP-18 NSCLC) [µM] | GI50 (IGROV1 ovarian) [µM] | GI50 (DMS 114 small cell lung) [µM]
O=C1c2ccccc2C(=O)c2sc(Nc3cccc(Cl)c3)nc21 | 3.25 | 0.89 | 3.59 | 3.48 | 5.9 | 0.596 | 2.46 | 2.97 | 0.258 | 0.711 | 1.89 | 6.75 | – | – | – | – | – | – | –
C=CCc1cc(OC)c2c(c1)C(O)CC(c1ccc(OC)c(OC)c1)O2 (centres undefined) | > 100 | > 100 | > 100 | > 100 | > 100 | – | – | > 100 | – | – | – | – | – | – | – | – | – | – | –
Cc1cc(=O)[nH]c(NNC(C#N)c2cccc(O)c2)n1 (centres undefined) | > 100 | > 100 | > 100 | > 100 | > 100 | – | – | > 100 | – | – | – | – | – | – | – | – | – | – | –
CSc1ccc(/C=C2\CN(C)C/C(=C\c3ccc(SC)cc3)C2=O)cc1 | > 100 | > 100 | > 100 | > 100 | > 100 | – | – | > 100 | – | – | – | – | – | – | – | – | – | – | –
COc1ccc2nc3cc(Cl)ccc3c(Sc3ccccc3[N+](=O)[O-])c2c1 | > 100 | > 100 | > 100 | > 100 | > 100 | – | – | > 100 | – | – | – | – | – | – | – | – | – | – | –
COc1cccc(NC(=O)CC(=O)n2nc(C)c(N=Nc3ccccc3)c2C)c1 | > 100 | > 100 | > 100 | 71.4 | > 100 | – | – | > 100 | – | – | – | – | – | – | – | – | – | – | –
CCOC(=O)C(Sc1ccccc1)c1c(OC)cc(=O)oc1/C=[N+](/[O-])c1ccc(N(C)C)cc1 (centres undefined) | 51.8 | 37.5 | 29 | 61.6 | > 100 | – | – | 42.9 | – | – | – | – | – | – | – | – | – | – | –
Cc1nc2c(nc1C)C(=O)c1ccccc1C2=O | 2.42 | 1.07 | 15.3 | 9.53 | 27.2 | – | 3.59 | > 46 | – | 0.365 | – | 30.3 | 2.72 | – | – | – | – | – | –
FC(F)(F)c1ccc(C2SCc3nc4ccccc4n32)cc1 (centres undefined) | > 100 | > 100 | > 100 | > 100 | > 100 | – | – | > 100 | – | – | – | – | – | – | – | – | – | – | –
O=c1cc(-c2cccc(O)c2)[nH]c2cc3c(cc12)OCO3 | 8.67 | 95.9 | 4.23 | > 100 | > 100 | – | > 100 | 5.68 | – | 0.997 | – | > 100 | 0.883 | – | – | – | – | – | –
CCOC(=O)c1ncn2c1[nH]c(=S)c1ccccc12 | > 100 | > 100 | > 100 | > 100 | > 100 | – | – | > 100 | – | – | – | – | – | – | – | – | – | – | –
C/C(CCn1[nH]c(=O)ccc1=O)=N\O | > 100 | > 100 | > 100 | > 100 | > 100 | – | – | > 100 | – | – | – | – | – | – | – | – | – | – | –
COc1ccc2c(c1)C1(C=N2)CCN(C(C)=O)CC1 | > 100 | > 100 | > 100 | > 100 | > 100 | – | – | > 100 | – | – | – | – | – | – | – | – | – | – | –
CC1(C)COC(c2ccc(C(F)(F)F)cc2C(O)c2ccc3ccccc3c2)=N1 (centres undefined) | > 100 | > 100 | > 100 | > 100 | > 100 | – | – | > 100 | – | – | – | – | – | > 100 | > 100 | > 100 | > 100 | > 100 | > 100
